Data as given in patent publication US7605163B2, “Benzoyl-piperazine derivatives” (Hoffmann-La Roche Inc., priority 2003, dated 2009).

What follows are molecules tested against T1, mGlyT-1b (Mus musculus, UniProt P28571) (assay: Glycine Uptake Inhibition Assay (mGlyT-1b)). Settings: [3H]-glycine uptake inhibition at GlyT-1, Flp-in-CHO cells transfected with mGlyT-1b cDNA.
T1 construct: host or cells: Flp-in-CHO cells
T1 sequence (P28571 1-651 isoform P28571-2): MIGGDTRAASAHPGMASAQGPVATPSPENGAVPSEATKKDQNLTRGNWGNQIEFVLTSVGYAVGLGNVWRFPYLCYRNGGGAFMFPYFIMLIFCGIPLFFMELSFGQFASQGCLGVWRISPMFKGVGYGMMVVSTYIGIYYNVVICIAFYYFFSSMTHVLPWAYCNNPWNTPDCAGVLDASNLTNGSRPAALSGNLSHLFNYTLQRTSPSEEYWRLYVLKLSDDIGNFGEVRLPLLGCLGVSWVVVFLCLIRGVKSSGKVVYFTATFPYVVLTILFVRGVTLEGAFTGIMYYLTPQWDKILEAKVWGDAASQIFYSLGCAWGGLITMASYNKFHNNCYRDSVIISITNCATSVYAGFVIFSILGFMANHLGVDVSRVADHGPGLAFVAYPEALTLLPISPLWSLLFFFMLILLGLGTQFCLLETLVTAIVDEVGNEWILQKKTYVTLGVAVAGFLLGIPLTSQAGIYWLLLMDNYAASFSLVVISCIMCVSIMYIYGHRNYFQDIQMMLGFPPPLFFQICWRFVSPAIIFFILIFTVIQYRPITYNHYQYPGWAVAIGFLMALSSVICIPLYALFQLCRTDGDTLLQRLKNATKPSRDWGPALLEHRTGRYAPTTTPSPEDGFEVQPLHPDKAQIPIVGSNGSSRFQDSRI
Assay type: cell-based
Procedure, shortened: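 Flp-in CHO cells stably expressing mouse GlyT-1b preincubated 20 min at 22 °C with inhibitor in pH 7.4 uptake buffer, then given 60 nM [3H]-glycine plus 25 μM unlabelled glycine. Cell radioactivity counted by scintillation; nonspecific uptake defined with 10 mM glycine; IC50 from concentration range.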

IC50 [nM]	SMILES
30	CNS(=O)(=O)c1ccc(OCC2CC2)c(C(=O)N2CCN(c3ccc(C#N)cc3F)CC2)c1 [compound 509]
35	CNS(=O)(=O)c1ccc(OCC2CC2)c(C(=O)N2CCN(c3ccc(C(C)=O)cc3F)CC2)c1 [compound 519]
38	COCCS(=O)(=O)c1ccc(N2CCN(C(=O)c3cc(S(C)(=O)=O)ccc3OC(C)C)CC2)c(F)c1 [compound 561]
44	CCS(=O)(=O)c1ccc(N2CCN(C(=O)c3cc(S(C)(=O)=O)ccc3OCC3CC3)CC2)c(F)c1 [compound 562]
43	CCS(=O)(=O)c1ccc(N2CCN(C(=O)c3cc(S(C)(=O)=O)ccc3OC3CCCC3)CC2)c(F)c1 [compound 563]
41	CCS(=O)(=O)c1ccc(N2CCN(C(=O)c3cc(S(C)(=O)=O)ccc3OC3CCCCC3)CC2)c(F)c1 [compound 564]
30	CCS(=O)(=O)c1ccc(N2CCN(C(=O)c3cc(S(C)(=O)=O)ccc3OCC(C)C)CC2)c(F)c1 [compound 566]
46	CC(C)Oc1ccc(S(C)(=O)=O)cc1C(=O)N1CCN(c2ccc(S(=O)(=O)C3CCC3)cc2F)CC1 [compound 570]
50	CC(C)Oc1ccc(S(C)(=O)=O)cc1C(=O)N1CCN(c2ccc(S(=O)(=O)C3CCCC3)cc2F)CC1 [compound 571]
39	CS(=O)(=O)c1ccc(OC2CCC2)c(C(=O)N2CCN(c3ccc(S(=O)(=O)C4CC4)cc3F)CC2)c1 [compound 576]
41	CC(C)COc1ccc(S(C)(=O)=O)cc1C(=O)N1CCN(c2ccc(S(=O)(=O)C3CC3)cc2F)CC1 [compound 578]
32	CC(C)Oc1ccc(S(C)(=O)=O)cc1C(=O)N1CCN(c2ccc(S(=O)(=O)C3CCCCC3)cc2F)CC1 [compound 589]

The next lines start with the molecule.

SMILES	IC50 [nM]
CC(C)Oc1ccc(S(C)(=O)=O)cc1C(=O)N1CCN(c2ccc(C=O)cc2F)CC1 [compound 461]	46
CNS(=O)(=O)c1ccc(OCC(C)C)c(C(=O)N2CCN(c3ccc(C#N)c(F)c3)CC2)c1 [compound 475]	40
CNS(=O)(=O)c1ccc(OCC2CCC2)c(C(=O)N2CCN(c3ccc(C#N)c(F)c3)CC2)c1 [compound 481]	30
CNS(=O)(=O)c1ccc(OCC(C)C)c(C(=O)N2CCN(c3ccc(C#N)cc3)CC2)c1 [compound 488]	39
CNS(=O)(=O)c1ccc(OC2CCCC2)c(C(=O)N2CCN(c3ccc(C#N)cc3)CC2)c1 [compound 491]	37
CNS(=O)(=O)c1ccc(OCC2CCC2)c(C(=O)N2CCN(c3ccc(C#N)cc3)CC2)c1 [compound 494]	30
CNS(=O)(=O)c1ccc(OCC(C)C)c(C(=O)N2CCN(c3ccc(C#N)cc3F)CC2)c1 [compound 504]	25
CNS(=O)(=O)c1ccc(OCC(C)(C)C)c(C(=O)N2CCN(c3ccc(C#N)cc3F)CC2)c1 [compound 505]	24
CNS(=O)(=O)c1ccc(OC(C)C)c(C(=O)N2CCN(c3ccc(C#N)cc3F)CC2)c1 [compound 506]	46
CNS(=O)(=O)c1ccc(OC2CCCC2)c(C(=O)N2CCN(c3ccc(C#N)cc3F)CC2)c1 [compound 507]	31
CNS(=O)(=O)c1ccc(OCC2CCC2)c(C(=O)N2CCN(c3ccc(C#N)cc3F)CC2)c1 [compound 510]	15
CNS(=O)(=O)c1ccc(OCC(C)C)c(C(=O)N2CCN(c3ccc(C(C)=O)cc3F)CC2)c1 [compound 514]	45
CNS(=O)(=O)c1ccc(OCC(C)(C)C)c(C(=O)N2CCN(c3ccc(C(C)=O)cc3F)CC2)c1 [compound 515]	40
CNS(=O)(=O)c1ccc(OC2CCCC2)c(C(=O)N2CCN(c3ccc(C(C)=O)cc3F)CC2)c1 [compound 517]	35
CNS(=O)(=O)c1ccc(OCC(C)C)c(C(=O)N2CCN(c3ccc(C(F)(F)F)cc3)CC2)c1 [compound 524]	12
CNS(=O)(=O)c1ccc(OCC(C)(C)C)c(C(=O)N2CCN(c3ccc(C(F)(F)F)cc3)CC2)c1 [compound 525]	21
CNS(=O)(=O)c1ccc(OC(C)C)c(C(=O)N2CCN(c3ccc(C(F)(F)F)cc3)CC2)c1 [compound 526]	9
CNS(=O)(=O)c1ccc(OC2CCCC2)c(C(=O)N2CCN(c3ccc(C(F)(F)F)cc3)CC2)c1 [compound 527]	6
CNS(=O)(=O)c1ccc(OC2CCC2)c(C(=O)N2CCN(c3ccc(C(F)(F)F)cc3)CC2)c1 [compound 528]	15
CNS(=O)(=O)c1ccc(OCC2CC2)c(C(=O)N2CCN(c3ccc(C(F)(F)F)cc3)CC2)c1 [compound 529]	13
CNS(=O)(=O)c1ccc(OCC2CCC2)c(C(=O)N2CCN(c3ccc(C(F)(F)F)cc3)CC2)c1 [compound 530]	5.7
CNS(=O)(=O)c1ccc(OCCC(F)(F)F)c(C(=O)N2CCN(c3ccc(C(F)(F)F)cc3)CC2)c1 [compound 531]	28
CNS(=O)(=O)c1ccc(OCC(F)(F)F)c(C(=O)N2CCN(c3ccc(C#N)cc3F)CC2)c1 [compound 534]	49
CNS(=O)(=O)c1ccc(OCC(F)(F)F)c(C(=O)N2CCN(c3ccc(C(F)(F)F)cc3)CC2)c1 [compound 537]	30
N#Cc1ccc(N2CCN(C(=O)c3cc(S(=O)(=O)C4CC4)ccc3OC3CCCC3)CC2)c(F)c1 [compound 546]	35
CS(=O)(=O)c1ccc(OC2CCCC2)c(C(=O)N2CCN(c3ccc(S(=O)(=O)C4CC4)cc3F)CC2)c1 [compound 573]	37
CS(=O)(=O)c1ccc(OC2CCCCC2)c(C(=O)N2CCN(c3ccc(S(=O)(=O)C4CC4)cc3F)CC2)c1 [compound 574]	34
CC(C)Oc1ccc(S(C)(=O)=O)cc1C(=O)N1CCN(c2cc(F)c(S(=O)(=O)C3CC3)cc2F)CC1 [compound 595]	49
CC(C)(Oc1ccc(S(C)(=O)=O)cc1C(=O)N1CCN(c2ncc(C(F)(F)F)cc2F)CC1)C(F)(F)F [compound 637]	47
